These results are taken from ChEMBL document CHEMBL1201862, “PubChem BioAssay data set” (2004).

Among the targets are Cytochrome P450 2D6 (Homo sapiens, UniProt P10635); Cytochrome P450 2C9 (Homo sapiens, UniProt P11712); Cytochrome P450 3A4 (Homo sapiens, UniProt P08684).
Data set [1] is described as follows: C. albicans growth with fluconazole, confirmation, fluorescence, retest (AID 2467). The data set is classed as functional, cell-based.
Data set [2] can be described thus: Luminescence Cell-Based Dose Confirmation HTS to Identify Inhibitors of Platelet Dense Granule Release. [Related pubchem assays: 1663 (Primary HTS), 1678 (Summary of Project)]. The data set is classed as functional.
The target in a further data set is T1, Cytochrome P450 1A2 (Homo sapiens, UniProt P05177).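 Note: PubChem cytochrome P450 panel assay, CYP1A2 panel member.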
T1 sequence (P05177 whole entry): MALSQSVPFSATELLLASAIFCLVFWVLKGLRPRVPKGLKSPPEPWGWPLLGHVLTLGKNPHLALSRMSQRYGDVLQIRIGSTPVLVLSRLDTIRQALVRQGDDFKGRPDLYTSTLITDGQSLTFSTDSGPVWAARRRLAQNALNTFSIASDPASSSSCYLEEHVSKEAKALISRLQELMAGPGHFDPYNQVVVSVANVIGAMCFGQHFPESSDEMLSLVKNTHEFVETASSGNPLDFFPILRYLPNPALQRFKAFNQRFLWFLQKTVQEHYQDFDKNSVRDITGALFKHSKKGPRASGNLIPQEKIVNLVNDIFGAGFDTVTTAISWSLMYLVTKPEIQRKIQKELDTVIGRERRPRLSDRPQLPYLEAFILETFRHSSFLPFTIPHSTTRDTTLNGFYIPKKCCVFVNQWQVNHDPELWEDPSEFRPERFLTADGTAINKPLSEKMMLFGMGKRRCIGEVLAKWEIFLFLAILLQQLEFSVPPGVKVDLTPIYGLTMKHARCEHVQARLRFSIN

Data set [3] in a line: NIH-3T3 fibroblast cytotoxicity, dose response, cytotoxicity control, cell-based, fluorescence, Alamar Blue, secondary assay (AID 2327).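 Note: NIH-3T3 mouse fibroblasts cultured with fluconazole at 8 µg/mL.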 Type of data set: functional. Background: Alamar Blue is a resazurin reagent that responds to reducing activity.
The target in data set [4] is Luciferin 4-monooxygenase (Photinus pyralis, UniProt P08659). Kind of data set: firefly luciferase enzyme inhibitors, dose response, biochemical, luminescence (AID 1891).
Chain of Luciferin 4-monooxygenase (P08659 whole entry): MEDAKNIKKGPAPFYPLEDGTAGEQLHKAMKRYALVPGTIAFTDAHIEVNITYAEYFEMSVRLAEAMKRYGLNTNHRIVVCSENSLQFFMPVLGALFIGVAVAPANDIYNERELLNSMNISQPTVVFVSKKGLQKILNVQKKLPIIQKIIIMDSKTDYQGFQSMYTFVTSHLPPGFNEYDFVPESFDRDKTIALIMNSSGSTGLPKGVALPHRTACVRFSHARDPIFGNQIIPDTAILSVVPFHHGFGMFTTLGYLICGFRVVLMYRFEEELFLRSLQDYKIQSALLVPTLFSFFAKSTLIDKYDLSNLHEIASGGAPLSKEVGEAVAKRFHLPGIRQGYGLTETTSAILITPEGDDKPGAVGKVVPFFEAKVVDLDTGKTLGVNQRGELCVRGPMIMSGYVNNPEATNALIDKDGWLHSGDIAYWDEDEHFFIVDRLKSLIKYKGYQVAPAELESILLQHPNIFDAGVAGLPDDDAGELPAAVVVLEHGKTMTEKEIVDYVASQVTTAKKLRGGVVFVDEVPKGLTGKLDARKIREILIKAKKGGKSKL
The target of data set [5] is T2, RNA-binding protein pos-1 (Caenorhabditis elegans, UniProt G5EF15).
T2 sequence (G5EF15 whole entry): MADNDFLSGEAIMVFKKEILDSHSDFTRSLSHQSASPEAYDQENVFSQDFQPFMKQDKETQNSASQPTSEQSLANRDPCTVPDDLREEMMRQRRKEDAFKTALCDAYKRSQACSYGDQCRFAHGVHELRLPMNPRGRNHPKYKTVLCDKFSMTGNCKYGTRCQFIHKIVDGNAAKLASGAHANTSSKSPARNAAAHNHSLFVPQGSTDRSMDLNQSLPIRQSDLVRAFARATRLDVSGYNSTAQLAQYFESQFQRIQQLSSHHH
The data set can be described thus: inhibitors of POS-1/mex-3 RNA binding, dose response, biochemical, fluorescence polarization (AID 1964).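 Note: purified POS-1 fused to maltose binding protein made in E. coli; potency of compounds blocking POS-1 binding to fluorescent RNA.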 Background: In fluorescence polarisation assays a small probe gives low polarisation when free and higher when bound to something large.

A further data set deals with Nonstructural protein 1 (Influenza A virus, UniProt Q194T2). The data set is classed as functional, Influenza A virus (A/California/07/2009(H1N1)).
Chain of Nonstructural protein 1 (Q194T2 whole entry): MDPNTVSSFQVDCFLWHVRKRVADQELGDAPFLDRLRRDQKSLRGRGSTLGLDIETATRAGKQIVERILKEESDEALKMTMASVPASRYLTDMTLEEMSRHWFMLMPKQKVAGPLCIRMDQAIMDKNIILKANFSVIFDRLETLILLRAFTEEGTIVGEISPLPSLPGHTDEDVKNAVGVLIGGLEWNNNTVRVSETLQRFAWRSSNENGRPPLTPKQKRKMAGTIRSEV
Data set [6] deals with T3, Zinc finger protein mex-5 (Caenorhabditis elegans, UniProt Q9XUB2).
T3 sequence (Q9XUB2 whole entry): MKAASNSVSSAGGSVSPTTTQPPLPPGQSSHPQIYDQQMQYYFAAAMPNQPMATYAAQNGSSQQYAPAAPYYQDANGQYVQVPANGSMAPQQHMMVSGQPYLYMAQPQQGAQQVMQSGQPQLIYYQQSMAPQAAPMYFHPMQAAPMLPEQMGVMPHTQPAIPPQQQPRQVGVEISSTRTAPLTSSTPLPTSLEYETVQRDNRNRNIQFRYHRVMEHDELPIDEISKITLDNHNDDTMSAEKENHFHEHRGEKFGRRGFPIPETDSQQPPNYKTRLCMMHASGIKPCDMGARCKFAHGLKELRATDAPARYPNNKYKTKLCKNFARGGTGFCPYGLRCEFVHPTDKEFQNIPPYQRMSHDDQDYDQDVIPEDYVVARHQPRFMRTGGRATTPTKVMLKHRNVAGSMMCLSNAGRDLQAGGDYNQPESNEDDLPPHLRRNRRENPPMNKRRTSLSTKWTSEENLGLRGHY
The data set can be described thus: MEX-5/TCR-2 RNA interaction inhibitors, dose response, biochemical, C. elegans, fluorescence polarization (AID 1960).

Data set [7] can be described thus: inhibitors of clade B AD8 Env fusion, dose response, cell-based, cherry-pick (AID 652062).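 Note: luciferase signal from cell-cell fusion driven by HIV-1 clade B AD8 Env; potency is for inhibitors of fusion seen as a drop in luminescence.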 The data set is classed as functional.
In data set [8] the target is T4, Rac GTPase-activating protein 1 (Homo sapiens, UniProt Q9H0H5).
T4 sequence (Q9H0H5 whole entry): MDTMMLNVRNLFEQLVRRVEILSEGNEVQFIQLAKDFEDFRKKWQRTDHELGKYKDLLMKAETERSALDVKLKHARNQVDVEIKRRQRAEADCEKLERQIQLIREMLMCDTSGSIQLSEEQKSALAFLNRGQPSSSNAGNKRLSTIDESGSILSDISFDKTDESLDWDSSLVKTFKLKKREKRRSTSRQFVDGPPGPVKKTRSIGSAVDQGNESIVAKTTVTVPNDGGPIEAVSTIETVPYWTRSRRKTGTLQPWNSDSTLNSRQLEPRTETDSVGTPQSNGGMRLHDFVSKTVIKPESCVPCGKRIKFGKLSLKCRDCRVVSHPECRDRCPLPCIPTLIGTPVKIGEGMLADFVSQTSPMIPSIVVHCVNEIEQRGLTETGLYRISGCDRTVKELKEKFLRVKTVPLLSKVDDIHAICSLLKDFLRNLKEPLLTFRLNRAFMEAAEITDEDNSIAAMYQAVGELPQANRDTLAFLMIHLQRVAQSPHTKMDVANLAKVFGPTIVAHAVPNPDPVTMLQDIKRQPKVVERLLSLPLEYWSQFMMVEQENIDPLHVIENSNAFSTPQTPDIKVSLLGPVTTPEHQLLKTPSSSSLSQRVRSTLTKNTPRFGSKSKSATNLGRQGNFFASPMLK
Kind of data set: MgcRacGAP GTPase-activating activity inhibitors, confirmation, biochemical, ADP Hunter fluorescence, primary and confirmatory (AID 624330). Type of data set: functional.

For the next data set, the target named is Cytochrome P450 2C19 (Homo sapiens, UniProt P33261). Kind of data set: Cytochrome panel assay with activity outcomes. Panel member name: p450-cyp2c19 Compounds with AC50 equal or less than 10 uM are considered active. Type of data set: functional. Conditions: read-out: AC50.
Chain of Cytochrome P450 2C19 (P33261 whole entry): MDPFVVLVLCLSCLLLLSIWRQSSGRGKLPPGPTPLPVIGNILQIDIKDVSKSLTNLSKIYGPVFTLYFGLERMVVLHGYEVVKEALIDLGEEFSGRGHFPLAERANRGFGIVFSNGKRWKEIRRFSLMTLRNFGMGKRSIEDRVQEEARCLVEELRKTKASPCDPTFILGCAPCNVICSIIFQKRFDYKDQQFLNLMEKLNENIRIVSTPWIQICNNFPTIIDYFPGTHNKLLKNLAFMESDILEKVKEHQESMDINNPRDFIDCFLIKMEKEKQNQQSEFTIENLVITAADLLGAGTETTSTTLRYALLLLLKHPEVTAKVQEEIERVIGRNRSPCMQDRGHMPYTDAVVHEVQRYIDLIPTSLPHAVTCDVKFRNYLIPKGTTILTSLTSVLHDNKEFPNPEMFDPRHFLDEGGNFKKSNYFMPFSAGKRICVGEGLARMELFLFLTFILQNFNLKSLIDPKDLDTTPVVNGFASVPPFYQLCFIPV
For another data set, the system named is H9c2. The data set can be described thus: cells. The data set is classed as functional, cell-based. Particulars: Rattus norvegicus, H9c2, Myocardium.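 Note: confirmatory concentration-response retest of ultra-high-throughput screening hits for modulation of myocardial damage; cell death induced by hydrogen peroxide oxidative stress; compound pretreatment for 60 min then peroxide exposure for 2 h; potency is for protecting the cells against peroxide damage rather than for killing them.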
A further data set relates to INS1. The data set can be described thus: beta cell apoptosis inhibitors, cytokine rescue, dose response, luminescence, retest (AID 449756).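 Note: cell death triggered by IL-1 beta plus TNF-alpha plus IFN-gamma mixture; protective hits raise ATP signal compared with cytokine alone wells.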 The data set is classed as functional, cell-based. Conditions: Rattus norvegicus.

Structures are written as SMILES. The source made the active and inactive calls.

Chain of Cytochrome P450 2C9 (P11712 whole entry): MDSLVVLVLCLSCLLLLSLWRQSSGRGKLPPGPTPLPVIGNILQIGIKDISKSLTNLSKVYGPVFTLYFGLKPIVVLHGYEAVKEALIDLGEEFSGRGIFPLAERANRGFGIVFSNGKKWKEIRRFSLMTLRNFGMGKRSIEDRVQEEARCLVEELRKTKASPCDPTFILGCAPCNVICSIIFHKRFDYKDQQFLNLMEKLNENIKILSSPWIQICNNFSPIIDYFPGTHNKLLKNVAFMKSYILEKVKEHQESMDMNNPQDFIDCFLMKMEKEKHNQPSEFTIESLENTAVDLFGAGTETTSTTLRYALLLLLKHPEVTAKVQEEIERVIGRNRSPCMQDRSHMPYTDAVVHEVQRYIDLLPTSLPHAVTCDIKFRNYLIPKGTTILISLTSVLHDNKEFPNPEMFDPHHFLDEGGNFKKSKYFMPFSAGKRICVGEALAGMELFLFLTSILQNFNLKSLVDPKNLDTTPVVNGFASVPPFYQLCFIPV
Chain of Cytochrome P450 3A4 (P08684 whole entry): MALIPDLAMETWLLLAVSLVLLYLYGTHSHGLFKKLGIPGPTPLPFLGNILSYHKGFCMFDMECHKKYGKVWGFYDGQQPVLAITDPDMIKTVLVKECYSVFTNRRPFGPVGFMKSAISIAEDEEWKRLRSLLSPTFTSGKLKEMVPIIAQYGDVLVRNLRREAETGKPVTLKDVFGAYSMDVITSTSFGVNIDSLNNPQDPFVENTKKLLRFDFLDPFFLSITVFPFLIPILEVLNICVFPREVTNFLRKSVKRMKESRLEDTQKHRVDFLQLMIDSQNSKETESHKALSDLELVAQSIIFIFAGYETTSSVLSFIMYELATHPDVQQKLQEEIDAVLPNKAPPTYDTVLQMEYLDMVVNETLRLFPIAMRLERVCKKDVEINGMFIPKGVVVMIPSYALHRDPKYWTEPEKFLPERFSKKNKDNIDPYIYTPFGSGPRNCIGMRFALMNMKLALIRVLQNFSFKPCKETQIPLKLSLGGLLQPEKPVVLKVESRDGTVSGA
Chain of Cytochrome P450 2D6 (P10635 whole entry): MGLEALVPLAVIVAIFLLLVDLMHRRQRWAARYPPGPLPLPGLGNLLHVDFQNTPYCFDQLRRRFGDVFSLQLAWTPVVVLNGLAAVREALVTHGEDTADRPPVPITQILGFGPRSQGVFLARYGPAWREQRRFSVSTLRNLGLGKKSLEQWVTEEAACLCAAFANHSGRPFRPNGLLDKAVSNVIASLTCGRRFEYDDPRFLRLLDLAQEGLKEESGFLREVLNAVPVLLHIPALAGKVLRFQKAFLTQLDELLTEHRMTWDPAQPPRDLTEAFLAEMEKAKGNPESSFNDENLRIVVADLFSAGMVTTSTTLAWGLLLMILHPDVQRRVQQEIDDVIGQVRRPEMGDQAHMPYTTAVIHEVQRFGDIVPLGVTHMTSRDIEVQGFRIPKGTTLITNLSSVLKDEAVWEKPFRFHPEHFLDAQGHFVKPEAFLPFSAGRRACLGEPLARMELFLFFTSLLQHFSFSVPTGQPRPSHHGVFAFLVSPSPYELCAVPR

The AC50 is the concentration giving half of the maximal activity seen. As usually defined, the EC50 is the concentration that produces a half-maximal response. Regarding `CCOc1ccc(CN(C(=O)c2oc3ccccc3c2C)C2CCS(=O)(=O)C2)cc1` (stereo not drawn), the concentration at half-maximal activity (AC50) on Cytochrome P450 2D6 and at Cytochrome P450 1A2 was 14.1 µM (inconclusive) each time. Moreover, the EC50 in data set [1] is > 38 µM (not active); in data set [2], > 112 µM (not active); in [3], > 160 µM (inconclusive); in [4], 28.3 µM (active). In general, IC50 refers to the concentration that inhibits the measured activity by half. For `CN1CCc2c(sc3c2C(=O)NC(c2ccccn2)N3)C1` (stereo not drawn), the 50% effective concentration (EC50) in data set [5] is 15.1 µM (active); in data set [6], 14.3 µM (active). In addition, the 50% inhibitory concentration (IC50) at Nonstructural protein 1 was 13.7 µM (active). For the compound `COc1ccc(S(=O)(=O)NC[C@@H]2CC[C@H]3[C@H](CN3Cc3cc(F)ccc3F)O2)cc1`, the half-maximal activity concentration (AC50) in data set [7] is 1.21 µM (active).

Take `CCS(=O)(=O)N1CCC(C(=O)NCc2ccccc2OC)CC1`: the half-maximal activity concentration (AC50) entry at Cytochrome P450 2C9 is recorded as “inconclusive”. As for `O=C(Cc1cccs1)N/N=C\c1ccc(O)cc1`, the IC50 in data set [8] was 39.3 µM (active). In the case of `FC(F)(F)c1ccc(/C=N/N2CCN(Cc3cccc4ccccc34)CC2)cc1`, the values for the AC50 entry on Cytochrome P450 2C9 and on Cytochrome P450 2C19 were “inconclusive” and 11.2 µM (inconclusive), respectively. With `COc1ccc(NC2CCCN(C(=O)COc3ccc(Cl)cc3C)C2)cc1OC` (stereo not drawn), the concentration for half-maximal inhibition (IC50) in data set [8] is 110 µM (active). On to `COc1ccc(Sc2nc3ccccc3n3c(C(F)(F)F)nnc23)cc1`, for which the AC50 result on Cytochrome P450 2C9 is “inconclusive”; at Cytochrome P450 2C19, 35.5 µM (inconclusive); at Cytochrome P450 1A2, 3.16 µM (inconclusive). Take `COc1ccc(OCCOCCN2CCN(C)CC2)cc1`: the IC50 in data set [8] is 70.2 µM (active).

Regarding `COc1ccc(C(=O)On2c(-c3ccc(Br)cc3)nc3ccccc3c2=O)cc1`, the EC50 in data set [1] was 1.8 µM (active); in data set [3], 6.36 µM (inconclusive).

Turning to `Clc1ccc(Cl)c(OCc2cc(-c3ccccc3Cl)on2)c1`, the AC50 entry at Cytochrome P450 2C9 was “inconclusive”; at Cytochrome P450 2C19, 0.891 µM (inconclusive); at Cytochrome P450 1A2, 0.282 µM (inconclusive). As to `Cc1ccc(-n2cc(-c3ccccc3)c3c(N4CCOCC4)ncnc32)cc1`, the IC50 in the data set on H9c2 was > 79 µM (inactive).

Take `O=C(COC(=O)c1cccc(S(=O)(=O)N2CCOCC2)c1)NCc1ccccc1`: in data set [7], the AC50 is 59.6 µM (active). For the compound `CSc1nnc(NC(=O)c2cc3ccccc3oc2=O)s1`, in the data set on H9c2, the IC50 was > 79 µM (inactive).

Regarding `C[C@H](NC(=O)c1[nH]cnc1C(=O)NCC(=O)OCc1ccccc1)C(=O)OCc1ccccc1`, the half-maximal inhibitory concentration (IC50) in the data set with H9c2 is 19.4 µM (active).

For `COC(=O)c1cc(OC)c(OC)cc1NC(=O)c1ccc(OC)c(OC)c1`, the IC50 in the data set with H9c2 is > 79 µM (inactive). Turning to `O=C(C[C@@H]1C[C@H]2c3cc(NC(=O)C4CCC4)ccc3O[C@H]2[C@H](CO)O1)NCC(F)(F)F`, the AC50 in data set [7] is 1.7 µM (active).

As for `CC(C)(C)c1ccc(SCC(N)=O)cc1`, the EC50 in data set [1] was > 38 µM (not active); in data set [3], > 150 µM (inconclusive). As for `CC(C)(C)NC(=O)c1cc(NC(=O)c2cccs2)cc(NC(=O)c2cccs2)c1`, the half-inhibitory concentration (IC50) in the data set on H9c2 is 11.1 µM (active). For the compound `CSc1nc(Cl)c(C#N)c(-c2ccc(C)cc2)n1`, the half-maximal effective concentration (EC50) in data set [1] is 1.55 µM (active); in data set [3], > 150 µM (inconclusive). On to `Cc1ccc(S(=O)(=O)N2CCOCC2)cc1C(=O)Nc1nc(-c2ccccn2)cs1`, for which the AC50 in the data set on INS1 is 2.19 µM (active). In the data set on H9c2, the IC50 was 11.3 µM (active). For the compound `CCOC(=O)CC(/C(C)=N\O)c1ccccc1` (stereo not drawn), the 50% effective concentration (EC50) in data set [1] is > 38 µM (not active); in data set [3], > 160 µM (inactive). The corresponding values for `Cc1cc(Cl)ccc1NNC(=O)c1c(C)noc1C` are > 38 µM (not active) and 32.7 µM (active). Turning to `COc1cc(/C=C(\C#N)C(=O)NCC2CCCO2)c([N+](=O)[O-])cc1OC` (stereo not drawn), the AC50 entry on Cytochrome P450 2C9 is recorded as “inconclusive”. As to `O=C(c1cccc(F)c1)N1CCN(Cc2cccc(Br)c2)CC1`, the IC50 in data set [8] is 136 µM (active). Take `NC(=O)c1ccc(Nc2nnc(-c3ccc(O)cc3)c3ccccc23)cc1`: the figures for the half-maximal effective concentration (EC50) in [1] and in data set [3] were > 38 µM (not active) and > 150 µM (inactive), respectively. Also, the IC50 in the data set with H9c2 is 15 µM (active).

For `Cc1nn(-c2ccccc2)c(C)c1C(=O)Nc1nnc(-c2ccco2)o1`, the results for the EC50 in [1] and in [3] were 1.03 µM (active) and > 150 µM (inactive), respectively. Turning to `O=C(COC(=O)c1ccc([N+](=O)[O-])o1)Nc1ccc(N2CCOCC2)cc1`, in the data set on H9c2, the IC50 was > 79 µM (inactive). Take `Cc1cc2nnc(SCC(=O)OC(C)C)n2c2ccccc12`: the concentration at half-maximal activity (AC50) result on Cytochrome P450 2C9 is recorded as “inconclusive”. Regarding `CCC(C)NC(=O)NC(=O)N(C1CCCCC1)S(C)(=O)=O` (stereo not drawn), the half-maximal activity concentration (AC50) entry on Cytochrome P450 2C9 is “inconclusive”; on Cytochrome P450 2C19, 17.8 µM (inconclusive). With `Cc1ccc(-c2ccc(=O)n(CC(=O)NCCN3CCCCC3C)n2)cc1` (stereo not drawn), the concentration at half-maximal activity (AC50) entry was “inconclusive” on Cytochrome P450 2C9, 35.5 µM (inconclusive) at Cytochrome P450 2C19 and 17.8 µM (inconclusive) on Cytochrome P450 3A4. With `COc1ccc(S(=O)(=O)N(C)CC(=O)NCc2ccco2)cc1`, the AC50 result was “inconclusive” on Cytochrome P450 2C9 and 15.8 µM (inconclusive) on Cytochrome P450 3A4.

Consider `COc1ccc(N2CCN(CC(=O)N3c4ccccc4CC3C)CC2)cc1` (stereo not drawn), for which the half-inhibitory concentration (IC50) in data set [8] was 79.7 µM (active).
